Assay results published in patent US20230111310A1, “CARBOXYLIC ACID DERIVATIVE-SUBSTITUTED IMINO ARYL COMPOUND, PREPARATION METHOD THEREFOR, HERBICIDAL COMPOSITION AND USE THEREOF” (Qingdao Kingagroot Chemical Compound Co., Ltd., priority 2020, published 2023).

Experiments:
Assay in all cases: Weeding effect in post-emergence stage
Format in all cases: in vivo
Details in all cases: level of fresh weight growth control rate
Abutilon theophrasti = test system: Abutilon theophrasti
Procedure, shortened: (§1)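 Read-out is growth control rate, counted 3 weeks post-spray and averaged over three repeats. Greenhouse plants at the 2-3 leaf stage received spray-tower application at 500, 250, 125, 60, 30, 15 or 7.5 g/ha, with methyl oleate EC (1.5 liter/ha) and Tween 80 added.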

Alopecurus japonicus = test system: Alopecurus japonicus
Procedure, shortened: as §1

Digitaria sanguinalis = test system: Digitaria sanguinalis
Procedure, shortened: as §1

Eleusine indica = test system: Eleusine indica
Procedure, shortened: as §1

Setaria viridis = test system: Setaria viridis
Procedure, shortened: as §1

Echinochloa crusgalli = test system: Echinochloa crusgalli
Procedure, shortened: as §1

SMILES	Weeding effect in post-emergence stage, Abutilon theophrasti (Abutilon theophrasti; Dose 15 g/ha)	Weeding effect in post-emergence stage, Alopecurus japonicus (Alopecurus japonicus; Dose 15 g/ha)	Weeding effect in post-emergence stage, Digitaria sanguinalis (Digitaria sanguinalis; Dose 15 g/ha)	Weeding effect in post-emergence stage, Eleusine indica (Eleusine indica; Dose 15 g/ha)	Weeding effect in post-emergence stage, Setaria viridis (Setaria viridis; Dose 15 g/ha)	Weeding effect in post-emergence stage, Echinochloa crusgalli (Echinochloa crusgalli; Dose 15 g/ha)	also measured
CCOC(=O)[C@H](O/N=C/c1cc(-n2c(=O)cc(C(F)(F)F)n(C)c2=O)c(F)cc1Cl)C1CC1 [319(R)]	–	–	–	–	–	–	Weeding effect in post-emergence stage, Abutilon theophrasti (Abutilon theophrasti; Dose 30 g/ha): 5 (Level 5: growth control rate is above 85%); Weeding effect in post-emergence stage, Alopecurus japonicus (Alopecurus japonicus; Dose 30 g/ha): 5 (Level 5: growth control rate is above 85%); Weeding effect in post-emergence stage, Digitaria sanguinalis (Digitaria sanguinalis; Dose 30 g/ha): 5 (Level 5: growth control rate is above 85%); Weeding effect in post-emergence stage, Eleusine indica (Eleusine indica; Dose 30 g/ha): 5 (Level 5: growth control rate is above 85%); Weeding effect in post-emergence stage, Setaria viridis (Setaria viridis; Dose 30 g/ha): 5 (Level 5: growth control rate is above 85%); Weeding effect in post-emergence stage, Echinochloa crusgalli (Echinochloa crusgalli; Dose 30 g/ha): 5 (Level 5: growth control rate is above 85%)
COC(=O)[C@H](OC)O/N=C/c1cc(-n2c(=O)cc(C(F)(F)F)n(C)c2=O)c(F)cc1Cl [321(R)]	–	–	–	–	–	–	Weeding effect in post-emergence stage, Abutilon theophrasti (Abutilon theophrasti; Dose 120 g/ha): 5 (Level 5: growth control rate is above 85%); Weeding effect in post-emergence stage, Alopecurus japonicus (Alopecurus japonicus; Dose 120 g/ha): 5 (Level 5: growth control rate is above 85%); Weeding effect in post-emergence stage, Digitaria sanguinalis (Digitaria sanguinalis; Dose 120 g/ha): 5 (Level 5: growth control rate is above 85%); Weeding effect in post-emergence stage, Eleusine indica (Eleusine indica; Dose 120 g/ha): 5 (Level 5: growth control rate is above 85%); Weeding effect in post-emergence stage, Setaria viridis (Setaria viridis; Dose 120 g/ha): 5 (Level 5: growth control rate is above 85%); Weeding effect in post-emergence stage, Echinochloa crusgalli (Echinochloa crusgalli; Dose 120 g/ha): 5 (Level 5: growth control rate is above 85%)
CCOC(=O)[C@H](OC)O/N=C/c1cc(-n2c(=O)cc(C(F)(F)F)n(C)c2=O)c(F)cc1Cl [322(R)]	–	–	–	–	–	–	Weeding effect in post-emergence stage, Abutilon theophrasti (Abutilon theophrasti; Dose 120 g/ha): 5 (Level 5: growth control rate is above 85%); Weeding effect in post-emergence stage, Alopecurus japonicus (Alopecurus japonicus; Dose 120 g/ha): 5 (Level 5: growth control rate is above 85%); Weeding effect in post-emergence stage, Digitaria sanguinalis (Digitaria sanguinalis; Dose 120 g/ha): 5 (Level 5: growth control rate is above 85%); Weeding effect in post-emergence stage, Eleusine indica (Eleusine indica; Dose 120 g/ha): 5 (Level 5: growth control rate is above 85%); Weeding effect in post-emergence stage, Setaria viridis (Setaria viridis; Dose 120 g/ha): 5 (Level 5: growth control rate is above 85%); Weeding effect in post-emergence stage, Echinochloa crusgalli (Echinochloa crusgalli; Dose 120 g/ha): 5 (Level 5: growth control rate is above 85%)
CCO[C@H](O/N=C/c1cc(-n2c(=O)cc(C(F)(F)F)n(C)c2=O)c(F)cc1Cl)C(=O)OC [331(R)]	5 (Level 5: growth control rate is above 85%)	5 (Level 5: growth control rate is above 85%)	5 (Level 5: growth control rate is above 85%)	5 (Level 5: growth control rate is above 85%)	5 (Level 5: growth control rate is above 85%)	5 (Level 5: growth control rate is above 85%)	–
COC(=O)[C@H](O/N=C/c1cc(-n2c(=O)cc(C(F)(F)F)n(C)c2=O)c(F)cc1Cl)c1ccccc1 [337(R)]	5 (Level 5: growth control rate is above 85%)	5 (Level 5: growth control rate is above 85%)	5 (Level 5: growth control rate is above 85%)	5 (Level 5: growth control rate is above 85%)	5 (Level 5: growth control rate is above 85%)	5 (Level 5: growth control rate is above 85%)	–
COC(=O)[C@@H](C)O/N=C/c1cc(-n2c(=O)cc(C(F)(F)F)n(C)c2=O)c(F)cc1C(F)(F)F [342(R)]	5 (Level 5: growth control rate is above 85%)	5 (Level 5: growth control rate is above 85%)	5 (Level 5: growth control rate is above 85%)	5 (Level 5: growth control rate is above 85%)	5 (Level 5: growth control rate is above 85%)	5 (Level 5: growth control rate is above 85%)	–
COC(=O)[C@@H](C)O/N=C/c1cc(-n2c(=O)cc(C(F)(F)F)n(C)c2=O)c(F)cc1C#N [344(R)]	5 (Level 5: growth control rate is above 85%)	5 (Level 5: growth control rate is above 85%)	5 (Level 5: growth control rate is above 85%)	5 (Level 5: growth control rate is above 85%)	5 (Level 5: growth control rate is above 85%)	5 (Level 5: growth control rate is above 85%)	–
